We go through 19 molecules from patent US20240368150A1 (Hoffmann-La Roche Inc., priority 2021, published 2024).

In experiment [1] the test system is primary human T-cells. Description: Proliferation assay after 5 days (CellTiter-Glo, CD3 stimulation; PBS counter screen). In kind it is cell-based. The following applies: CD3 stimulation; for Emax / Emax proliferation (% activation): 5 days, normalized to reference compound A1 as stimulator control = 100%, DMSO neutral control; for Emax: read-out: Emax proliferation (% activation); for EC50: primary human T-cells, CellTiter-Glo after 5 days, EC50 of fitted sigmoidal curve, read-out: Tcell Proliferation CD3 EC50. Put shortly: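 Primary human T-cells, with or without CD3 stimulation, exposed to compounds for 5 days; cell number read as ATP by CellTiter-Glo 2.0 luminescence after 45 min equilibration and 15 min reagent incubation at room temperature. Compounds activating unstimulated cells or reducing viability were flagged.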
In general terms: Cellular ATP, detected with luciferase, serves as a proxy for viable cell number.

Experiment [2] has as its system primary human T-cells.

Where two headings read alike, the source gives them in different places.

Turning to `CC(C)(C#N)c1nc(-c2cc3c(cc2F)S(=O)(=O)C[C@H](N)C(=O)N3Cc2ccc(Cl)cc2)no1` [Example 321, 2-[3-[(3R)-3-amino-5-[(4-chlorophenyl)methyl]-8-fluoro-1,1,4-trioxo-2,3-dihydro-1λ^6,5-benzothiazepin-7-yl]-1,2,4-oxadiazol-5-yl]-2-methyl-propanenitrile], in experiment [1] (Homo sapiens, T-cell, 120 h), the Emax was determined as 130% and the EC50 worked out at 250 nM. This molecule came in with an EC50 in experiment [2] of 597 nM.
The matching figures for `Cc1nnc(-c2nc(-c3cc4c(cc3F)S(=O)(=O)C[C@H](N)C(=O)N4Cc3ccc(Cl)cc3)no2)o1` [Example 322, (3R)-3-amino-5-[(4-chlorophenyl)methyl]-8-fluoro-7-[5-(5-methyl-1,3,4-oxadiazol-2-yl)-1,2,4-oxadiazol-3-yl]-1,1-dioxo-2,3-dihydro-1λ^6,5-benzothiazepin-4-one]: 110%, 751 nM and 740 nM.
The matching figures for `CN1CC(c2nc(-c3cc4c(cc3F)S(=O)(=O)C[C@H](N)C(=O)N4Cc3ccc(Cl)cc3)no2)CC(C)(C)C1` (stereo partly drawn) [Example 324, (3R)-3-amino-5-[(4-chlorophenyl)methyl]-8-fluoro-1,1-dioxo-7-[5-(1,5,5-trimethyl-3-piperidyl)-1,2,4-oxadiazol-3-yl]-2,3-dihydro-1λ^6,5-benzothiazepin-4-one]: 107%, 341 nM and 4370 nM.
`CN(C)Cc1nc(-c2cc3c(cc2F)S(=O)(=O)C[C@H](N)C(=O)N3Cc2ccc(Cl)cc2)no1` [Example 325, (3R)-3-amino-5-[(4-chlorophenyl)methyl]-7-[5-[(dimethylamino)methyl]-1,2,4-oxadiazol-3-yl]-8-fluoro-1,1-dioxo-2,3-dihydro-1λ^6,5-benzothiazepin-4-one]: the Emax in experiment [1] (Homo sapiens, T-cell, 120 h) came out at 96%. Also, the EC50 in experiment [1] (Homo sapiens, T-cell, 120 h) was determined as 869 nM; in experiment [2], 455 nM.
The matching figures for `N[C@H]1CS(=O)(=O)c2cc(F)c(-c3noc(C(F)(F)C(F)(F)F)n3)cc2N(Cc2ccc(Cl)cc2)C1=O` [Example 326, (3R)-3-amino-5-[(4-chlorophenyl)methyl]-8-fluoro-1,1-dioxo-7-[5-(1,1,2,2,2-pentafluoroethyl)-1,2,4-oxadiazol-3-yl]-2,3-dihydro-1λ^6,5-benzothiazepin-4-one]: 129%, 908 nM and 703 nM.
Turning to `C#CCOCCOCCOCCCC(C)(C)c1nc(-c2cc3c(cc2F)S(=O)(=O)C[C@H](N)C(=O)N3Cc2ccc(Cl)cc2)no1` [Example 327, (3R)-3-amino-5-[(4-chlorophenyl)methyl]-7-[5-[1,1-dimethyl-4-[2-(2-prop-2-ynoxyethoxy)ethoxy]butyl]-1,2,4-oxadiazol-3-yl]-8-fluoro-1,1-dioxo-2,3-dihydro-1λ^6,5-benzothiazepin-4-one], in experiment [1] (Homo sapiens, T-cell, 120 h), the Emax was found to be 104% and the EC50 came to 722 nM. Besides, in experiment [2], the EC50 came out at 2330 nM.
For `CN(C)C(=O)c1nc(-c2cc3c(cc2F)S(=O)(=O)C[C@H](N)C(=O)N3Cc2ccc(OC(F)(F)F)cc2)no1` [Example 328, 3-[(3R)-3-amino-8-fluoro-1,1,4-trioxo-5-[[4-(trifluoromethoxy)phenyl]methyl]-2,3-dihydro-1λ^6,5-benzothiazepin-7-yl]-N,N-dimethyl-1,2,4-oxadiazole-5-carboxamide], in that order: 120%, 1960 nM and 1080 nM.
On to `NC(c1nc(-c2cc3c(cc2F)S(=O)(=O)C[C@H](N)C(=O)N3Cc2ccc(OC(F)(F)F)cc2)no1)C(F)(F)F` (stereo partly drawn) [Example 329, (3R)-3-amino-7-[5-(1-amino-2,2,2-trifluoro-ethyl)-1,2,4-oxadiazol-3-yl]-8-fluoro-1,1-dioxo-5-[[4-(trifluoromethoxy)phenyl]methyl]-2,3-dihydro-1λ^6,5-benzothiazepin-4-one], for which, in experiment [1] (Homo sapiens, T-cell, 120 h), the Emax stood at 70% and the EC50 stood at 5330 nM. Further, in experiment [2], the EC50 amounted to 198 nM.
Consider `CC(C)(C)NC(=O)c1nc(-c2cc3c(cc2F)S(=O)(=O)C[C@H](N)C(=O)N3Cc2ccc(OC(F)(F)F)cc2)no1` [Example 330, 3-[(3R)-3-amino-8-fluoro-1,1,4-trioxo-5-[[4-(trifluoromethoxy)phenyl]methyl]-2,3-dihydro-1λ^6,5-benzothiazepin-7-yl]-N-tert-butyl-1,2,4-oxadiazole-5-carboxamide], for which, in experiment [1] (Homo sapiens, T-cell, 120 h), the Emax stood at 132% and the EC50 turned out to be 291 nM. This molecule gave an EC50 in experiment [2] of 1830 nM.
With `N[C@H]1CS(=O)(=O)c2cc(F)c(-c3noc(C4(CO)CCCO4)n3)cc2N(Cc2ccc(OC(F)(F)F)cc2)C1=O` (stereo partly drawn) [Example 332, (3R)-3-amino-8-fluoro-7-[5-[2-(hydroxymethyl)tetrahydrofuran-2-yl]-1,2,4-oxadiazol-3-yl]-1,1-dioxo-5-[[4-(trifluoromethoxy)phenyl]methyl]-2,3-dihydro-1λ^6,5-benzothiazepin-4-one], in experiment [1] (Homo sapiens, T-cell, 120 h), the Emax amounted to 128% and the EC50 was 814 nM. Further, the EC50 in experiment [2] stood at 746 nM.
Consider `N[C@H]1CS(=O)(=O)c2cc(F)c(-c3noc(C4(N)COC4)n3)cc2N(Cc2ccc(OC(F)(F)F)cc2)C1=O` [Example 333, (3R)-3-amino-7-[5-(3-aminooxetan-3-yl)-1,2,4-oxadiazol-3-yl]-8-fluoro-1,1-dioxo-5-[[4-(trifluoromethoxy)phenyl]methyl]-2,3-dihydro-1lambda6,5-benzothiazepin-4-one], for which, in experiment [1] (Homo sapiens, T-cell, 120 h), the Emax worked out at 94%. Besides, the EC50 is 1220 nM in experiment [1] (Homo sapiens, T-cell, 120 h) and 714 nM in experiment [2].
As for `Cc1nnc(-c2nc(-c3cc4c(cc3F)S(=O)(=O)C[C@H](N)C(=O)N4Cc3ccc(OC(F)(F)F)cc3)no2)o1` [Example 334, (3R)-3-amino-8-fluoro-7-[5-(5-methyl-1,3,4-oxadiazol-2-yl)-1,2,4-oxadiazol-3-yl]-1,1-dioxo-5-[[4-(trifluoromethoxy)phenyl]methyl]-2,3-dihydro-1λ^6,5-benzothiazepin-4-one], in experiment [1] (Homo sapiens, T-cell, 120 h), the Emax stood at 80% and the EC50 stood at 345 nM. The molecule also gave an EC50 in experiment [2] of 239 nM.
With `COC(=O)N1CC2CC(c3nc(-c4cc5c(cc4F)S(=O)(=O)C[C@H](N)C(=O)N5Cc4ccc(OC(F)(F)F)cc4)no3)(C2)C1` [Example 335, methyl 1-[3-[(3R)-3-amino-8-fluoro-1,1,4-trioxo-5-[[4-(trifluoromethoxy)phenyl]methyl]-2,3-dihydro-1λ^6,5-benzothiazepin-7-yl]-1,2,4-oxadiazol-5-yl]-3-azabicyclo[3.1.1]heptane-3-carboxylate], the Emax in experiment [1] (Homo sapiens, T-cell, 120 h) is 161%. Further, in experiment [2], the EC50 is 819 nM.
Take `COC(=O)N1CC2CC(c3nc(-c4cc5c(cc4F)[S+]([O-])C[C@H](N)C(=O)N5Cc4ccc(OC(F)(F)F)cc4)no3)(C2)C1` (stereo partly drawn) [Example 336, methyl 1-[3-[(3R)-3-amino-8-fluoro-1,4-dioxo-5-[[4-(trifluoromethoxy)phenyl]methyl]-2,3-dihydro-1λ^4,5-benzothiazepin-7-yl]-1,2,4-oxadiazol-5-yl]-3-azabicyclo[3.1.1]heptane-3-carboxylate]: in experiment [1], the “Emax proliferation (% activation)” value is on record as 114 % activation and the EC50 was determined as 1100 nM. Also, the EC50 in experiment [2] was 7020 nM.
For `COC(=O)N1CC2CC(c3nc(-c4cc5c(cc4F)[S+]([O-])C[C@H](N)C(=O)N5Cc4ccc(OC(F)(F)F)cc4)no3)(C2)C1` (stereo partly drawn) [Example 337, methyl 1-[3-[(3R)-3-amino-8-fluoro-1,4-dioxo-5-[[4-(trifluoromethoxy)phenyl]methyl]-2,3-dihydro-1λ^4,5-benzothiazepin-7-yl]-1,2,4-oxadiazol-5-yl]-3-azabicyclo[3.1.1]heptane-3-carboxylate], in that order: 92 % activation, 2270 nM and 5950 nM.
`COC(F)(c1nc(-c2cc3c(cc2F)[S+]([O-])C[C@H](N)C(=O)N3Cc2ccc(Cl)cc2)no1)C(F)(F)F` (stereo partly drawn) [Example 338, (3R)-3-amino-5-[(4-chlorophenyl)methyl]-8-fluoro-1-oxo-7-[5-(1,2,2,2-tetrafluoro-1-methoxy-ethyl)-1,2,4-oxadiazol-3-yl]-2,3-dihydro-1λ^4,5-benzothiazepin-4-one]: in experiment [1] (Homo sapiens, T-cell, 120 h), the Emax was 137% and the EC50 amounted to 282 nM. Also, in experiment [2], the EC50 amounted to 1580 nM.
The matching figures for `N[C@H]1CS(=O)(=O)c2cc(F)c(-c3noc(C4(C(F)(F)F)CC4)n3)cc2N(Cc2ccc(OC(F)(F)F)cc2)C1=O` [Example 344, (3R)-3-amino-8-fluoro-1,1-dioxo-5-[[4-(trifluoromethoxy)phenyl]methyl]-7-[5-[1-(trifluoromethyl)cyclopropyl]-1,2,4-oxadiazol-3-yl]-2,3-dihydro-1λ^6,5-benzothiazepin-4-one]: 120%, 69.7 nM and 473 nM.
For `CC(C)Oc1ccc(CN2C(=O)[C@@H](N)CS(=O)(=O)c3cc(F)c(-c4noc(C5CN(C)CC(F)(F)C5)n4)cc32)nc1` (stereo partly drawn) [Example 346, (3R)-3-amino-7-[5-(5,5-difluoro-1-methyl-3-piperidyl)-1,2,4-oxadiazol-3-yl]-8-fluoro-5-[(5-isopropoxy-2-pyridyl)methyl]-1,1-dioxo-2,3-dihydro-1λ^6,5-benzothiazepin-4-one], in that order: 100%, 5650 nM and 5720 nM.
The matching figures for `CC(C)Oc1ccc(CN2C(=O)[C@@H](N)CS(=O)(=O)c3cc(F)c(-c4noc(C5CN(C)CC(F)(F)C5)n4)cc32)cn1` (stereo partly drawn) [Example 347, (3R)-3-amino-7-[5-(5,5-difluoro-1-methyl-3-piperidyl)-1,2,4-oxadiazol-3-yl]-8-fluoro-5-[(6-isopropoxy-3-pyridyl)methyl]-1,1-dioxo-2,3-dihydro-1λ^6,5-benzothiazepin-4-one]: 151%, 977 nM and 3500 nM.
